Five compounds from US11396503B2, “Sulfonyl substituted bicyclic compound which acts as ROR inhibitor” (CHIA TAI TIANQING PHARMACEUTICAL GROUP CO., LTD, priority 2017, dated 2022) can be followed below.

This test concerns the target T1, hRORγt (Homo sapiens, UniProt P51449).
T1 construct: expressed in transfected cells; host or cells: CHO-S (Chinese hamster ovary cells, Invitrogen R80007), transiently transfected with pM-hRORγt and pG5-luc
T1 sequence (P51449 1-497 isoform P51449-2): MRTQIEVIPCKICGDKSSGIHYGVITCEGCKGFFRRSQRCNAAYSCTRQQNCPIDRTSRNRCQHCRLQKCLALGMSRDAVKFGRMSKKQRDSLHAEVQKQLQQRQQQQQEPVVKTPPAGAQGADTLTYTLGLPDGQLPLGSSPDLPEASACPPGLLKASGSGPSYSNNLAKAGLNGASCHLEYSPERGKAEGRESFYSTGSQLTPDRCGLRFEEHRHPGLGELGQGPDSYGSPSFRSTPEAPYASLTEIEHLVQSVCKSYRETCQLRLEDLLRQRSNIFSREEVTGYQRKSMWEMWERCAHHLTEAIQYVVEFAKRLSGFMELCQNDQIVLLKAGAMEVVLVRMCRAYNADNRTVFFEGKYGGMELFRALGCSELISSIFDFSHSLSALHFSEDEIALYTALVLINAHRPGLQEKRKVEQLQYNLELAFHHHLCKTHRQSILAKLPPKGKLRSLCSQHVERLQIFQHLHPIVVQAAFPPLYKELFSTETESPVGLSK
The experiment in a line: Luciferase assay (reporter gene, recombinant plasmid hRORγt). The test is classed as cell-based. As to conditions: CHO-S cells transfected with pM-hRORγt and pG5-luc; overnight culture with compound; ONE-Glo luciferase readout; read-out: RORgt EC50. The source says: This assay method used luciferase as a reporter gene to detect the expression of cells transfected with a gene recombinant plasmid at gene transcription level, wherein the recombinant plasmid was constructed by the promoter of a target gene and a luciferase gene. The experiment was primarily related to the transfection of the recombinant plasmid hRORγt (“RORgt”).
I. Reagents and Materials:
1. Cells: Chinese hamster ovary cells (CHO—S, Invitrogen, Cat #R80007), suspension-cultured in CD-CHO culture medium containing 8 mM L-glutamine and 1×HT.
a) Luciferase reporter gene plasmid pG5-luc: reporter plasmid (Promega).
b) Target gene plasmid pM-hRORγt: human RORgamma.
4. Transfection reagent: TransIT-CHO transfection kit (Minis Bio Co.) containing Trans-It reagent and Mojo reagent (Minis, MIR2170).
7. Luciferase kit: (Promega ONE-Glo, 100 ml, Catalog #E6120): containing luciferase substrate (Coenzyme A, ATP and luciferin) and a reaction buffer.
II. Specific Experimental Steps
1. Cell seeding: 18 to 24 h before transfection, a 125 mL shake flask was charged with CHO—S cells having a concentration of 0.5×10^6 cells/mL to 0.6×10^6 cells/mL, and CD-CHO culture medium (the culture medium only contained L-glutamine and an HT supplement) was added thereto to a final volume of 18 mL. The shake flask was placed on a shaker, and the cells were passaged overnight under a condition of 120 rpm, 37° C. and 8% CO2.
2. Cell transfection: At this time, the cell concentration of the above-mentioned solution should be 1.2×10^6 cells/mL to 1.5×10^6 cells/mL. CD-CHO culture medium (containing L-glutamine and an HT supplement) was used for dilution until the cell concentration reached 1×10^6 cells/mL.
B. Preparation of transfection reagent (TransIT-CHO: Mojo: DNA complex), which was formulated immediately before transfection.
1. Trans-IT reagent was warmed to room temperature in advance and shaken to be uniformly mixed before use.
2. Preparation for DNA transfection: the following reagents were mixed in a 1.5 mL sterile centrifuge tube:
27 μg of luciferase reporter gene plasmid pG5-luc: 27 μL, 1 mg/mL solution,
0.75 μg of the expression plasmid of the target gene (pM-hRORγt, 7.5 μL, 0.1 mg/mL solution).
3. The following reagents were charged into a 15 mL sterile centrifuge tube:
83 μL of TransIT-CHO reagent
the DNA complex prepared in step 2
4. The mixture was mixed well and placed at room temperature for 5 min.
5. 13.9 μL of Mojo reagent was charged into a sterile centrifuge tube, mixed slightly, and placed at room temperature for 20 min to form a transfection complex.
1. A 125 mL shake flask was charged with the transfection complex prepared in step B dropwise while being shaken slowly.
2. The cells were cultured for 4 h in a shaker under a condition of 37° C. and 8% carbon dioxide.
3. After 4 h, the cells were transferred to a 50 mL sterile centrifuge tube, centrifuged at 1200 rpm for 4 min, and the supernatant was aspirated.
4. The cells were re-suspended in 6 mL of a freezing medium (CD-CHO, L-glutamine, HT supplement, and 10% DMSO), and the cell density should be 3×10^6 cells/ml at this time.
5. The mixture was dispensed into 12 tubes with 0.5 mL in each tube. The tubes were placed in a refrigerator at −80° C. to be slowly frozen overnight, and then were transferred into liquid nitrogen for long-term storage.
D. Luciferase activity assay (96-well flat plate)
1. The cells were thawed at 37° C.
2. The cells (1.5×10^6 cells/0.5 mL) were diluted with 2 mL of freshly formulated culture medium (CD-CHO, L-glutamine and an HT supplement) to a volume of 2.5 mL, and then were transferred to a 15 mL sterile centrifuge tube.
3. Cell counting: If the cells were completely viable, a concentration of 6×10^5 cells/mL should be achieved. […] If necessary, the cells were diluted with culture medium.
4. Cell seeding: 100 μl cells (4×10^4 cells) were added to each well.
A general note: A reporter such as luciferase makes a cellular process visible.
One may read the EC50 as the midpoint of the concentration-response curve. As to `CCc1ccc2c(c1)CC(C)N2S(=O)(=O)c1ccc(OCC2CCOCC2)c(CO)c1` (centres unmarked), the EC50 is 1.61e+06 pM. The result for `C[C@H]1CCc2cc(CC(F)(F)F)ccc2N1S(=O)(=O)c1ccc(OCC2CCOCC2)c(CO)c1` reads 316000 pM; that for `CCc1ccc2c(c1)N(S(=O)(=O)c1ccc(OCC3CCOCC3)c(CO)c1)[C@@H](C)CC2`, 223000 pM. The result for `CC[C@H]1CCc2cc(C(F)(F)F)ccc2N1S(=O)(=O)c1ccc(OCC2CCOCC2)c(CO)c1` reads 71000 pM; that for `CCC1CCc2cc(C(C)C)ccc2N1S(=O)(=O)c1ccc(OCC2CCOCC2)c(CO)c1` (centres unmarked), 3500 pM.
